Results: patent publication US8404685B2, “Dihydropyrazole derivatives as tyrosine kinase modulators for the treatment of tumors” (Merck Patent Gesellschaft Mit Beschrankter Haftung, priority 2008, dated 2013)
pIC50: −log10 of the molar value.

Tests used:
[1] = biological target: T1, Met kinase (Homo sapiens, UniProt P08581); experiment: Met kinase inhibition (cell); type: cell-based
[2] = biological target: T1, Met kinase; experiment: Met kinase inhibition, flashplate method (enzyme); type: biochemical; set-up: 6His (N); purchased Upstate 14-526; host or cells: Sf21 insect cells (S. frugiperda), baculovirus
Source text: According to the manufacturer's data (Met, active, Upstate, catalogue No. 14-526), Met kinase is expressed for the purposes of protein production in insect cells (Sf21; S. frugiperda) and subsequent affinity-chromatographic purification as “N-terminal 6His-tagged” recombinant human protein in a baculovirus expression vector.
The test plates used are 96-well Flashplate® microtitre plates from Perkin Elmer (Cat. No. SMP200). The components of the kinase reaction described below are pipetted into the assay plate. The Met kinase and the substrate poly Ala-Glu-Lys-Tyr, (pAGLT, 6:2:5:1), are incubated for 3 hrs at room temperature with radioactively labelled ^33P-ATP in the presence and absence of test substances in a total volume of 100 μl. The reaction is terminated using 150 μl of a 60 mM EDTA solution. After incubation for a further 30 min at room temperature, the supernatants are filtered off with suction, and the wells are washed three times with 200 μl of 0.9% NaCl solution each time. The measurement of the bound radioactivity is carried out by means of a scintillation measuring instrument (Topcount NXT, Perkin-Elmer).
The full value used is the inhibitor-free kinase reaction. This should be approximately in the range 6000-9000 cpm. The pharmacological zero value used is staurosporin in a final concentration of 0.1 mM. The inhibitory values (IC50) are determined using the RS1_MTS program.
Kinase reaction conditions per well:
10 μl of substance to be tested in assay buffer with 10% of DMSO
10 μl of ATP (final concentration 1 μM cold, 0.35 μCi of ^33P-ATP)
50 μl of Met kinase/substrate mixture in assay buffer;
• (10 ng of enzyme/well, 50 ng of pAGLT/well) • Solutions used: • Assay buffer: • 50 mM HEPES • 3 mM magnesium chloride • 3 μM sodium orthovanadate • 3 mM manganese(II) chloride • 1 mM dithiothreitol (DTT) • pH=7.5 (to be set using sodium hydroxide) • Stop solution: • 60 mM Titriplex III (EDTA) • ^33P-ATP: Perkin-Elmer; • Met kinase: Upstate, Cat. No. 14-526, Stock 1 μg/10 μl; spec. activity 954 U/mg; • Poly-Ala-Glu-Lys-Tyr, 6:2:5:1: Sigma Cat. No. P1152 In-Vivo Tests

T1 sequence (P08581 25-1390): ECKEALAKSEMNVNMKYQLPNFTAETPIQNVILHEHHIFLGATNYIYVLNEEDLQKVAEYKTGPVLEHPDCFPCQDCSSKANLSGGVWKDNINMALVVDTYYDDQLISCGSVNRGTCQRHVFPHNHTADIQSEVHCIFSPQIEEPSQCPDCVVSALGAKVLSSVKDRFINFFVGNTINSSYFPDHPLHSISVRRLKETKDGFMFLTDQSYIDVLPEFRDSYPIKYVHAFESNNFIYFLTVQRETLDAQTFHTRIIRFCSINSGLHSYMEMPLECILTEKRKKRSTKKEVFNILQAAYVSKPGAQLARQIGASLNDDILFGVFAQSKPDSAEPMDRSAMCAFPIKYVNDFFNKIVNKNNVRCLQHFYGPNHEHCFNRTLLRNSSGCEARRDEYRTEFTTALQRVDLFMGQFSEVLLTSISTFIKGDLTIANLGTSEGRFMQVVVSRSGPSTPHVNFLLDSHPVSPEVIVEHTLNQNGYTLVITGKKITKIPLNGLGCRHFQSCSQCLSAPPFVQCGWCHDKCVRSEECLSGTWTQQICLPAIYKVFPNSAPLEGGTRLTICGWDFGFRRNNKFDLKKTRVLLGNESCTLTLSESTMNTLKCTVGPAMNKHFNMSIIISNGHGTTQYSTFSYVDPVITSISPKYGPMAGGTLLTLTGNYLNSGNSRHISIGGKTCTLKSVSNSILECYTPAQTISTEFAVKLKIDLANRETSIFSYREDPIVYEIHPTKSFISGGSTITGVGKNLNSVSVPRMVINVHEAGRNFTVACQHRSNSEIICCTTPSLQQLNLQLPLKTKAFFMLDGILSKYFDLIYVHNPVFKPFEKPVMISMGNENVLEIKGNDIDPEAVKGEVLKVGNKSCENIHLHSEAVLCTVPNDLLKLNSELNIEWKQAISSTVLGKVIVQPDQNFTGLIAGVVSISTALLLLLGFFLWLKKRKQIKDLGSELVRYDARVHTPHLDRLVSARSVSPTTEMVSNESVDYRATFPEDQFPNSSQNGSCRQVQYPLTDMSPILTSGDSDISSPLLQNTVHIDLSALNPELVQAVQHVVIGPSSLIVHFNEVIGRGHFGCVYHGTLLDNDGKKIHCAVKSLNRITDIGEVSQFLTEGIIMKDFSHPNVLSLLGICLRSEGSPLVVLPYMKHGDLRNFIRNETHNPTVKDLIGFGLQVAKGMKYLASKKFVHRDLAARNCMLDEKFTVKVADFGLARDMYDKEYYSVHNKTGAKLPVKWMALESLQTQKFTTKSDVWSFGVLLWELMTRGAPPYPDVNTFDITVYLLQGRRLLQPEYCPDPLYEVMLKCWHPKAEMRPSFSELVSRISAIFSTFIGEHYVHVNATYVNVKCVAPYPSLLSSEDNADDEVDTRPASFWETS

| Structure (SMILES) | pIC50 [1] | pIC50 [2] |
| --- | --- | --- |
| O=C(Cc1cccc(-c2ncc(-c3cnn(CCN4CCCC4)c3)cn2)c1)N1CCC(c2cc(Cl)ccc2Cl)=N1 [Compound A1, 1-[3-(2,5-dichlorophenyl)-4,5-dihydropyrazol-1-yl]-2-(3-{5-[1-(2-pyrrolidin-1-ylethyl)-1H-pyrazol-4-yl]pyrimidin-2-yl}phenyl)ethanone] | 7.00 to 9.00 | 7.00 to 9.00 |
| N#Cc1cccc(C2=NN(C(=O)Cc3cccc(-c4ncc(Br)cn4)c3)CC2)c1 [Compound A7, 3-(1-{2-[3-(5-bromopyrimidin-2-yl)phenyl]acetyl}-4,5-dihydro-1H-pyrazol-3-yl)benzonitrile] | 7.00 to 9.00 | 7.00 to 9.00 |
| O=C(Cc1cccc(-c2ncc(OCCN3CCOCC3)cn2)c1)N1CCC(c2cc(Cl)ccc2Cl)=N1 [Compound A8, 1-[3-(2,5-dichlorophenyl)-4,5-dihydropyrazol-1-yl]-2-{3-[5-(2-morpholin-4-ylethoxy)pyrimidin-2-yl]phenyl}ethanone] | 7.00 to 9.00 | 7.00 to 9.00 |
